Results: PMC5303145 (Brain research, 2016)
Residue numbers refer to the chain shown, from its start.

Experiments:
[1] = molecular target: T1, human α1 glycine receptor WT (Homo sapiens, UniProt P23415); type: cell-based; details: for Imax (% of max glycine): α1 WT, percentage of maximal glycine current ± S.E.M.; for average current elicited: WT GlyR, 10 mM glycine or 100 mM taurine
T1 sequence (P23415 29-449 isoform P23415-2 limits assumed): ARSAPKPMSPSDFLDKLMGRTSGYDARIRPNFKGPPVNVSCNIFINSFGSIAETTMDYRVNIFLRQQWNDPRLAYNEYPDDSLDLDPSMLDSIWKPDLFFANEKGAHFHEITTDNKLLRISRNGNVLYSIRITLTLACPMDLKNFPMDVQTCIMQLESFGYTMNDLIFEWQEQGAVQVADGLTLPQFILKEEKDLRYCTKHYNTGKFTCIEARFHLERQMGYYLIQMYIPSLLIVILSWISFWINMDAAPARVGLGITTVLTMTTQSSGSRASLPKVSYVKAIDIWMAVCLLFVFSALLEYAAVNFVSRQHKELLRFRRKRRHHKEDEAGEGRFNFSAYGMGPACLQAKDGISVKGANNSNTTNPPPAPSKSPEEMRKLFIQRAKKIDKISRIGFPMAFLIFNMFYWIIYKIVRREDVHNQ

D97R α1 GlyR [2] = molecular target: T2, D97R α1 GlyR (Homo sapiens, UniProt P23415, D125R); type: cell-based; details: for increase of maximal currents by the D97R mutation: D97R versus WT; for Imax (% of max glycine): D97R, percentage of maximal glycine current ± S.E.M.; for average current elicited: 10 mM glycine or 100 mM taurine
T2 sequence (P23415 29-449 isoform P23415-2 D125R limits assumed): T1 sequence (P23415 29-449 isoform P23415-2 limits assumed) with D97R

D97E α1 GlyR = molecular target: T3, D97E α1 GlyR (Homo sapiens, UniProt P23415, D125E); type: cell-based; details: for average current elicited: D97E α1 GlyR, 10 mM glycine or 100 mM taurine
T3 sequence (P23415 29-449 isoform P23415-2 D125E limits assumed): T1 sequence (P23415 29-449 isoform P23415-2 limits assumed) with D97E

D97R α1 GlyR [3] = molecular target: T2, D97R α1 GlyR; type: cell-based; details: for conductance of the openings: in the presence of taurine or glycine; for Popen of clusters: saturating concentration (100 mM taurine, 10 mM glycine), 2.5 mM tricine
D97A α1 GlyR = details: for Popen of clusters: D97A, saturating concentration (100 mM taurine, 10 mM glycine), 2.5 mM tricine
D97 mutant GlyR = details: saturating concentrations of glycine or taurine
wildtype α1 GlyR = type: cell-based, human

Imax (% of max glycine) [1] [%]	increase of maximal currents by the D97R mutation (D97R α1 GlyR [2])	Imax (% of max glycine) (D97R α1 GlyR [2]) [%]	Structure (SMILES)	average current elicited [1] [μA]	average current elicited (D97R α1 GlyR [2]; D97R α1 GlyR) [μA]	average current elicited (D97E α1 GlyR) [μA]	conductance of the openings (D97R α1 GlyR [3])	Popen of clusters (D97R α1 GlyR [3])	total current in patch (D97A α1 GlyR; D97A multi-channel patch, sample tracing, 10 mM glycine) [pA]	Popen of clusters (D97A α1 GlyR)	whole-cell current (D97 mutant GlyR)	EC50 ([1]; EC50, α1 WT, whole-cell, oocytes, 2.5 mM tricine) [mM]	maximal taurine response versus maximal glycine response (D97R α1 GlyR [2]; D97R GlyR, 100 mM taurine vs 10 mM glycine)	greater current than glycine (D97R α1 GlyR [2]; D97R α1 GlyR, taurine and glycine both at 300 mM) [%]	Imax (% of max glycine) (D97E α1 GlyR; D97E, percentage of maximal glycine current ± S.E.M.) [%]	Popen (wildtype α1 GlyR)
17.3 ± 9.2	four- to five-fold	89	CC(N)CC(=O)O (stereo not drawn) [β-ABA, β-aminobutyric acid]													
			NCC(=O)O [Glycine]	27.6 ± 2.9	3.68 ± 0.37	11.9 ± 2.9	approximately 75 pS	0.990 ± 0.001	84	0.938 ± 0.044	3000–5000 nA					
15.3 ± 3.3	four- to five-fold	61	CC(CN)C(=O)O (stereo not drawn) [β-AIBA, β-aminoisobutyric acid]													

Structure (SMILES)	Imax (% of max glycine) [1] [%]	increase of maximal currents by the D97R mutation (D97R α1 GlyR [2])	Imax (% of max glycine) (D97R α1 GlyR [2]) [%]	average current elicited [1] [μA]	average current elicited (D97R α1 GlyR [2]; D97R α1 GlyR) [μA]	average current elicited (D97E α1 GlyR) [μA]	conductance of the openings (D97R α1 GlyR [3])	Popen of clusters (D97R α1 GlyR [3])	total current in patch (D97A α1 GlyR; D97A multi-channel patch, sample tracing, 10 mM glycine) [pA]	Popen of clusters (D97A α1 GlyR)	whole-cell current (D97 mutant GlyR)	EC50 ([1]; EC50, α1 WT, whole-cell, oocytes, 2.5 mM tricine) [mM]	maximal taurine response versus maximal glycine response (D97R α1 GlyR [2]; D97R GlyR, 100 mM taurine vs 10 mM glycine)	greater current than glycine (D97R α1 GlyR [2]; D97R α1 GlyR, taurine and glycine both at 300 mM) [%]	Imax (% of max glycine) (D97E α1 GlyR; D97E, percentage of maximal glycine current ± S.E.M.) [%]	Popen (wildtype α1 GlyR)
NCCS(=O)(=O)O [Taurine]	41 ± 4.5			11.8 ± 1.7	3.56 ± 0.36	11.4 ± 2.9	approximately 75 pS	0.990 ± 0.002		0.987 ± 0.003	3000–5000 nA	1.96	approximately equal	12.7 ± 7.1	95.6 ± 4.7	0.62 ± 0.06
